Experimental data reported in ChEMBL document CHEMBL2040771, “Discovery of a potent inhibitor of anaplastic lymphoma kinase with in vivo antitumor activity” (ACS Med Chem Lett, 2010).
Calls of active or inactive are those of the source. No cut-off for these calls is given here.

Tests used:
[1] = AUC in SCID mouse at 10 mg/kg, po; assay type: ADME, organism-based; parameters: dose 10 mg/kg, route oral; details: plasma
[2] = Growth inhibition of ALK-positive human SUP-M2 cells by MTS assay; assay type: functional, cell-based
[3] = Half life in SCID mouse at 10 mg/kg, po; assay type: ADME, organism-based; parameters: dose 10 mg/kg, route oral; details: in vivo
Mus musculus [4] = experiment: Toxicity in SCID mouse xenografted with human SUP-M2 cells assessed as weight loss at 30 mg/kg, po BID for 12 days; assay type: organism-based; parameters: dose 30 mg/kg, route oral; details: in vivo, 288 h
Mus musculus [5] = experiment: Clearance with respect to hepatic blood flow in SCID mouse at 1 mg/kg, iv; assay type: ADME, organism-based, Liver; parameters: dose 1 mg/kg, route intravenous; details: in vivo
[6] = tested on: Epidermal growth factor receptor (Homo sapiens), P00533 [L861Q]; experiment: Inhibition of EGFR L861Q mutant at 1 uM; assay type: protein assay
Epidermal growth factor receptor (Homo sapiens), P00533 [L861Q], sequence (P00533 whole entry L861Q): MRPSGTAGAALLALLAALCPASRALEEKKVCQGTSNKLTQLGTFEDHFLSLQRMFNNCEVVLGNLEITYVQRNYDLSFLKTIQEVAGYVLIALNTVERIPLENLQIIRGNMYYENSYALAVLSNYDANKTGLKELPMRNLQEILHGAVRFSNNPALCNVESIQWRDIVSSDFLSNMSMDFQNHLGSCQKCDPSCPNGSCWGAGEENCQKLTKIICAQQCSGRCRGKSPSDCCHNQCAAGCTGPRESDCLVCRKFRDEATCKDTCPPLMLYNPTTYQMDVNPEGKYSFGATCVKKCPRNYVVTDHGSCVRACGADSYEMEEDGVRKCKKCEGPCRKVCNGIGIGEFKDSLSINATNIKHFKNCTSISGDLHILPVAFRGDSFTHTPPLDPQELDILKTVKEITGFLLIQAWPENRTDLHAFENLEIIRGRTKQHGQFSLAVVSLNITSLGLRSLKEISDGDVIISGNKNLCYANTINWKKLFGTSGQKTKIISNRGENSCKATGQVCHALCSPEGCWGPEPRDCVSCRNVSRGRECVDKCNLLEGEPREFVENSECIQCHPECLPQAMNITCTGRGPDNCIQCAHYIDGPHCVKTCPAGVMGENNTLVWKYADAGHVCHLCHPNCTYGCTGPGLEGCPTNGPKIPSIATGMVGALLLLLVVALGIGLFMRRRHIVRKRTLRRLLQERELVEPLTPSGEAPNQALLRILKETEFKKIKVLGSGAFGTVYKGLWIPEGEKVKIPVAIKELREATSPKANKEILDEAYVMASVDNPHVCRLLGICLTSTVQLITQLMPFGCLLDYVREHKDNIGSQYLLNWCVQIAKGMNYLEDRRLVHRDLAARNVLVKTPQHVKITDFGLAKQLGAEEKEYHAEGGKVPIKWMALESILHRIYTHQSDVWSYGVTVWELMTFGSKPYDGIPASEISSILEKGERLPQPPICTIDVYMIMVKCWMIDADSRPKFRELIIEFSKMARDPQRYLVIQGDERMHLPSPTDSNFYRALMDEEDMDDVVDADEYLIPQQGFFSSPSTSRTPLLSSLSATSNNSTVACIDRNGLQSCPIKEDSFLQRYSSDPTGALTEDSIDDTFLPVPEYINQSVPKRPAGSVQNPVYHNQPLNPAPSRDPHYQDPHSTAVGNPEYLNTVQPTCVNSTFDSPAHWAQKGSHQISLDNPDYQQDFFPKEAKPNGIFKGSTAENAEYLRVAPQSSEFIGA

[7] = tested on: Epidermal growth factor receptor (Homo sapiens), P00533 [L861Q]; experiment: Inhibition of EGFR L861Q mutant at 0.1 uM; assay type: protein assay
[8] = target: Protein-tyrosine kinase 2-beta (Homo sapiens) (UniProt Q14289); experiment: Inhibition of PYK2 at 0.1 uM
Protein-tyrosine kinase 2-beta (Homo sapiens), sequence (Q14289 whole entry, looked up): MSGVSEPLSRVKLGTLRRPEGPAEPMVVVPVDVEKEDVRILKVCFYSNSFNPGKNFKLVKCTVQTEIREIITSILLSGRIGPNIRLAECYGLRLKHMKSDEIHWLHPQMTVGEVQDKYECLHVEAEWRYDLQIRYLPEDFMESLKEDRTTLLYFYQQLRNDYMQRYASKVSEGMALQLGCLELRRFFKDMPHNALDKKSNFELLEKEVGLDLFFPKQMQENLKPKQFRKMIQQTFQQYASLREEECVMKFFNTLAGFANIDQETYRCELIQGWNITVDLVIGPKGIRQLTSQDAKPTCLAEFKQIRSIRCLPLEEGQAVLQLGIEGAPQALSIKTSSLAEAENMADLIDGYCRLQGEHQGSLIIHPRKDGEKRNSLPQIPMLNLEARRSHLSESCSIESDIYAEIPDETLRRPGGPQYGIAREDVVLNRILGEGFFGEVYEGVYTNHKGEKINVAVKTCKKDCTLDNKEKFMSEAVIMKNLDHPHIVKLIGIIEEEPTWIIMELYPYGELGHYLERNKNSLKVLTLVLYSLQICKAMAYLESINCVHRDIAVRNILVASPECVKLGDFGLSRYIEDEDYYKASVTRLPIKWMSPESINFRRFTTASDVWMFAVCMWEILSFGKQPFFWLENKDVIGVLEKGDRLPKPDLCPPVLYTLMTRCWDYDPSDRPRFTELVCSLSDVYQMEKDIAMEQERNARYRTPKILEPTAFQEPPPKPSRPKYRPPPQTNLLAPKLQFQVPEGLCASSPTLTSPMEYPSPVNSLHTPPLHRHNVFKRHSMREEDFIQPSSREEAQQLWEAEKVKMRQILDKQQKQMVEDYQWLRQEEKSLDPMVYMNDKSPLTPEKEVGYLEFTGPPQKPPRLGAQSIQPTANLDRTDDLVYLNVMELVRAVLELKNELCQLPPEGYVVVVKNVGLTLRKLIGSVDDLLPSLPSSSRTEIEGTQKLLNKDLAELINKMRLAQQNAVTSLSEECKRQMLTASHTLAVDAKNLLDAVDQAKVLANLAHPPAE

[9] = target: Dual specificity protein kinase TTK (Homo sapiens) (UniProt P33981); experiment: Inhibition of TTK at 1 uM
Dual specificity protein kinase TTK (Homo sapiens), sequence (P33981 whole entry): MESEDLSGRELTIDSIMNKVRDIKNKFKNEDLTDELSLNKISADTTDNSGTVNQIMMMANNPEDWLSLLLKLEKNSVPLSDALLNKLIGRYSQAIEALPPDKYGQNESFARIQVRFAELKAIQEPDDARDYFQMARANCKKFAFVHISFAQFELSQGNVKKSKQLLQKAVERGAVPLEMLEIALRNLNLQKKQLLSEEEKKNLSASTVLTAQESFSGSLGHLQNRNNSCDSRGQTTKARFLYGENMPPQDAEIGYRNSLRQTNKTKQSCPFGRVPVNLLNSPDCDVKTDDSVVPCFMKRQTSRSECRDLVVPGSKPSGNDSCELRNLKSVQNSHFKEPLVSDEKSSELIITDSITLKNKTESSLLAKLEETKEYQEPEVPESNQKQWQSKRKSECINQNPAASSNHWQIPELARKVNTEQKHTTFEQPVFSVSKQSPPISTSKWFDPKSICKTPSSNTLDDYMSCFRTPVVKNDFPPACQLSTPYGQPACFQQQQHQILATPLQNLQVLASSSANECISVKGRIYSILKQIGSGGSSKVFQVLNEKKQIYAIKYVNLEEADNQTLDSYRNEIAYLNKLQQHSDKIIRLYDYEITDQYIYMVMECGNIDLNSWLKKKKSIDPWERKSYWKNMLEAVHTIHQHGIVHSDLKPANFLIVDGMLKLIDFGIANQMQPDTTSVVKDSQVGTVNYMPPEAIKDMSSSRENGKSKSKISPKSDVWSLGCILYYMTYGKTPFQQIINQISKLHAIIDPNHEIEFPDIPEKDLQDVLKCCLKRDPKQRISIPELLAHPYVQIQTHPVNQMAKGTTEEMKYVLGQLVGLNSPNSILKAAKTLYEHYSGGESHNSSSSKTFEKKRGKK

[10] = target: Serine/threonine-protein kinase PAK 3 (Homo sapiens) (UniProt O75914); experiment: Inhibition of PAK3 at 1 uM
Serine/threonine-protein kinase PAK 3 (Homo sapiens), sequence (O75914 whole entry, looked up): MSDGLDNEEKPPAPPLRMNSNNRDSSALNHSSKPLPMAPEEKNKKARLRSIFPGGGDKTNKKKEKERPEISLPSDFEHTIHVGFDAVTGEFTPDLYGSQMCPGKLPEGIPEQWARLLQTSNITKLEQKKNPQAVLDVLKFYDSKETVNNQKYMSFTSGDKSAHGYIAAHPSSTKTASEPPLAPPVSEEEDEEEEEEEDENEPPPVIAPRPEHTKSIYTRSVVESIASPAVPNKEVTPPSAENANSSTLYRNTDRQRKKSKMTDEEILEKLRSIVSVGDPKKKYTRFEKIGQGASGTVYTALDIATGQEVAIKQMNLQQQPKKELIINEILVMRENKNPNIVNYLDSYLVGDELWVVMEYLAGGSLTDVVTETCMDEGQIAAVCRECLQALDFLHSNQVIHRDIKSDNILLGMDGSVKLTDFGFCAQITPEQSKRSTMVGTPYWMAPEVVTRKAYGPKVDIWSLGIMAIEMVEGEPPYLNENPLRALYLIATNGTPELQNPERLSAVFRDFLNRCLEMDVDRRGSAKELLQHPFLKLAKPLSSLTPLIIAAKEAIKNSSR

[11] = Half life in Sprague-Dawley rat at 1 mg/kg, iv; assay type: ADME, organism-based; parameters: dose 1 mg/kg, route intravenous; details: in vivo
Rattus norvegicus = experiment: Clearance with respect to hepatic blood flow in Sprague-Dawley rat at 1 mg/kg, iv; assay type: ADME, organism-based, Liver; parameters: dose 1 mg/kg, route intravenous; details: in vivo
[12] = target: Serine/threonine-protein kinase PAK 3 (Homo sapiens) (UniProt O75914); experiment: Inhibition of PAK3 at 0.1 uM
[13] = target: Protein-tyrosine kinase 6 (Homo sapiens) (UniProt Q13882); experiment: Inhibition of BRK at 0.1 uM
Protein-tyrosine kinase 6 (Homo sapiens), sequence (Q13882 whole entry, looked up): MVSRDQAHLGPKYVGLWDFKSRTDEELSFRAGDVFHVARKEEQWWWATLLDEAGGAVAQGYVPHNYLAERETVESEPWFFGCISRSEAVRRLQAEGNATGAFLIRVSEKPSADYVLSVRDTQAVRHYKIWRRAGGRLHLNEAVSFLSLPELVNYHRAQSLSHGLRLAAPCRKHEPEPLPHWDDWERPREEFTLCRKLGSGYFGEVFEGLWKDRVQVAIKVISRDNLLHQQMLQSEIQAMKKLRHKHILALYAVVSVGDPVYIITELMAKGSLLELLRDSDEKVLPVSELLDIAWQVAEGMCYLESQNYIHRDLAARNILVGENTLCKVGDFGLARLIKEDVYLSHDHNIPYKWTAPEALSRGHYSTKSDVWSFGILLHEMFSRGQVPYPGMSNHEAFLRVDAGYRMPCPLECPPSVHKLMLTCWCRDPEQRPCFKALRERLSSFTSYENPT

[14] = target: Tyrosine-protein kinase Srms (Homo sapiens) (UniProt Q9H3Y6); experiment: Inhibition of SRMS at 1 uM
Tyrosine-protein kinase Srms (Homo sapiens), sequence (Q9H3Y6 whole entry): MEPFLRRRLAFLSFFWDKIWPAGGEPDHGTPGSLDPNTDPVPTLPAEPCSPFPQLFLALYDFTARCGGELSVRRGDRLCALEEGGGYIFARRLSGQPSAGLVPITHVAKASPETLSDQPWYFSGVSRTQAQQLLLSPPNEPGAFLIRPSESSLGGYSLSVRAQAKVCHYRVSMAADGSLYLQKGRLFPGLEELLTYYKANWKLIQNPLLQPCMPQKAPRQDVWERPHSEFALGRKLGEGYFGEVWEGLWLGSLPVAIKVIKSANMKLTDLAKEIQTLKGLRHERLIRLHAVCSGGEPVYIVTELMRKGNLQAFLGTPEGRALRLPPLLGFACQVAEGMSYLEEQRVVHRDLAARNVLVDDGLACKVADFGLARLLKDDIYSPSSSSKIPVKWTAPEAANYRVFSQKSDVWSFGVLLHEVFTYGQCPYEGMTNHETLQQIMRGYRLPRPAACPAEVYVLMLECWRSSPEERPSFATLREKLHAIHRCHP

[15] = target: ALK tyrosine kinase receptor (Homo sapiens, UniProt Q9UM73); details: 0.1 uM
Description: Inhibition of ALK at 0.1 uM

[16] = target: Dual specificity mitogen-activated protein kinase kinase 1 (Homo sapiens) (UniProt Q02750); experiment: Inhibition of MEK1 at 0.1 uM
[17] = tested on: Receptor-type tyrosine-protein kinase FLT3 (Homo sapiens), P36888 [D835Y]; experiment: Inhibition of FLT3 D835Y mutant at 1 uM
KARPAS-299 = experiment: Induction apoptosis in ALK-positive human KARPAS299 cells assessed as activation of caspase 3/7 by fluorometric assay; assay type: functional, cell-based
[18] = tested on: Receptor-type tyrosine-protein kinase FLT3 (Homo sapiens), P36888 [D835H]; experiment: Inhibition of FLT3 D835H mutant at 1 uM
[19] = target: Mitogen-activated protein kinase 9 (Homo sapiens) (UniProt P45984); experiment: Inhibition of JNK2 at 1 uM
[20] = target: Serine/threonine-protein kinase PLK4 (Homo sapiens) (UniProt O00444); experiment: Inhibition of PLK4 at 1 uM
[21] = target: Mitogen-activated protein kinase 8 (Homo sapiens) (UniProt P45983); experiment: Inhibition of JNK1 at 0.1 uM
Mitogen-activated protein kinase 8 (Homo sapiens), sequence (P45983 whole entry): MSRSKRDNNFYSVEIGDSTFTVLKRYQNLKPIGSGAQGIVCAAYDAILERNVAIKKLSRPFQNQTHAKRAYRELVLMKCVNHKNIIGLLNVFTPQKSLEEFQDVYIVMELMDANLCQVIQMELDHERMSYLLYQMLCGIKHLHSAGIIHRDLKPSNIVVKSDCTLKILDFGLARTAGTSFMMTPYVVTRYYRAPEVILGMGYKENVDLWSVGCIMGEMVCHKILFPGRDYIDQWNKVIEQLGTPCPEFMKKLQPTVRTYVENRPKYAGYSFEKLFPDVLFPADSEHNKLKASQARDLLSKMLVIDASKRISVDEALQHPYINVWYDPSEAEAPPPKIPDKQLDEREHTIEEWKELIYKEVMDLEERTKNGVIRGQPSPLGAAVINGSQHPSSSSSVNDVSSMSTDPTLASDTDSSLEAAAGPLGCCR

Mus musculus [22] = experiment: Toxicity in SCID mouse xenografted with human SUP-M2 cells assessed as weight loss at 55 mg/kg, po BID for 12 days; assay type: organism-based; parameters: dose 55 mg/kg, route oral; details: in vivo, 288 h
[23] = AUC in beagle dog at 1 mg/kg, iv; assay type: ADME, organism-based, Canis lupus familiaris; parameters: dose 1 mg/kg, route intravenous; details: plasma

## CCN1C(=O)CCCc2c1ccc(Nc1ncc(Cl)c(N[C@H]3[C@@H](C(N)=O)[C@@H]4C=C[C@H]3C4)n1)c2OC
[1]
  AUC: 1410 ng·h/mL
[2]
  EC50: 200 nM
[3]
  half-life: 2.4 h
Mus musculus [4]
  Activity: Non-toxic
Mus musculus [5]
  CL: 41%
[6]
  inhibition: 93%
[7]
  inhibition: < 50%
[8]
  inhibition: 90%
[9]
  inhibition: 96%
[10]
  inhibition: 90%
[11]
  half-life: 0.8 h
Rattus norvegicus
  CL: 20%
[12]
  inhibition: < 50%
[13]
  inhibition: 88%
[14]
  inhibition: 94%
[15]
  inhibition: 89%
[16]
  inhibition: < 50%
[17]
  inhibition: 96%
KARPAS-299
  Activity: Active
[18]
  inhibition: 95%
[19]
  inhibition: 92%
[20]
  inhibition: 95%
[21]
  inhibition: 81%
Mus musculus [22]
  Activity: Non-toxic
[23]
  AUC: 773 ng·h/mL
